Target: MK2 (Homo sapiens, UniProt P49137)
Assay: Inhibition in solution assay of kinase MK2
Type: biochemical
Conditions: IC50 extrapolated from the dose dependent inhibition graphs (FIG. 6)
Excerpt: Determination of affinity of MK2 inhibitors (IC50) through inhibition in solution assay of kinase MK2 by various compounds of general formula I-VI

Chain of MK2 (P49137 whole entry, species assumed): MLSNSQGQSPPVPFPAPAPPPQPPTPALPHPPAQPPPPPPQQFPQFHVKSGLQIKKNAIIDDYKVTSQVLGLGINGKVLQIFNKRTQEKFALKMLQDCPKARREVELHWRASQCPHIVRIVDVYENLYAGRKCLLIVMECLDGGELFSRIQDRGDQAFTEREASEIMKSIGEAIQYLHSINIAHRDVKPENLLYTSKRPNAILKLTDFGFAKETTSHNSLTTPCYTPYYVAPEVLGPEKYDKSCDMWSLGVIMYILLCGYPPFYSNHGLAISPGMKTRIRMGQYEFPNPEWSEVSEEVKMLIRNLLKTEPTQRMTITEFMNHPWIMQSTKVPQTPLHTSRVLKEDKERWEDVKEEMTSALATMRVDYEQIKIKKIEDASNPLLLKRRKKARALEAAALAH

IC50: 585 nM
SMILES: Cc1ccc(-c2ccc3c(ccc4sc5c(c43)NC[C@@H](C)NC5=O)n2)cn1 [PF 3644022]

From patent US12595234B2, “Bioactive benzocycloheptene analogues from himachalenes and its applications” (Council of Scientific and Industrial Research, priority 2020, dated 2026)
